Where two headings read alike, the source gives them in different places.
Assay: Pharmacokinetics in humans, MRTX1133 formulation, oral, single and multiple doses
Format: in vivo
Details: human, plasma, po; for AUC0-inf: read-out: AUC0-inf, Geo Mean
Description: The pharmacokinetics [PK] of the MRTX1133 formulation after oral administration has been evaluated in 25 subjects across 3 escalating dose frequencies under fasting conditions (200 mg twice daily [BID], 400 mg BID, and 800 mg BID), as well as evaluation of 400 mg BID when administered with a low-fat meal (i.e., under fed conditions). The mean (+standard deviation) single-dose and multiple-dose pharmacokinetic profiles of the evaluated doses are presented in FIG. 9 and FIG. 10, respectively. Individual single- and multiple-dose PK profiles can be found in FIG. 11. For all figures, the X-axis represents nominal time of sample collection (hours [h]) and the Y-axis represents plasma concentration (ng/mL). Table 10 lists PK data following the oral administration of a single dose and multiple doses of MRTX1133 formulation by dose level and subject.

[1] = 400 mg, single oral dose of 400 mg with a low-fat meal, mean of subjects, read-out: Plasma concentration, Mean
[2] = 400 mg, single oral dose of 400 mg with a low-fat meal, individual subjects, read-out: Plasma concentration
[3] = 400 mg, single oral dose of 400 mg, fasted, mean of subjects, read-out: Plasma concentration, Mean
[4] = 400 mg, single oral dose of 400 mg, fasted, individual subjects, read-out: Plasma concentration
[5] = 800 mg, multiple oral doses of 800 mg BID, fasted, Mean of subjects, read-out: Plasma concentration

With `C#Cc1c(F)ccc2cc(O)cc(-c3ncc4c(N5C[C@H]6CC[C@@H](C5)N6)nc(OC[C@@]56CCCN5C[C@H](F)C6)nc4c3F)c12` [MRTX1133, 4-(4-((1R,5S)-3,8-diazabicyclo[3.2.1]octan-3-yl)-8-fluoro-2-(((2R,7aS)-2-fluorohexahydro-1Hpyrrolizin-7a-yl)methoxy)pyrido[4,3-d]pyrimidin-7-yl)-5-ethynyl-6-fluoronaphthalen-2-ol] as the molecule, how does the concentration at 2 h [1] read?
Its concentration at 2 h is 43.6 ng/mL.

What about the concentration at 3 h (400 mg, single oral dose of 400 mg with a low-fat meal, 3 h, mean of subjects) of the same molecule?
The concentration at 3 h was 43.7 ng/mL.

And the concentration at 4 h [1]?
Its concentration at 4 h is 59.7 ng/mL.

And the concentration at 5 h (400 mg, single oral dose of 400 mg with a low-fat meal, 5 h, mean of subjects)?
Its concentration at 5 h is 53.9 ng/mL.

And the concentration at 6 h [1]?
The concentration at 6 h was 43.6 ng/mL.

And the concentration at 8 h [1]?
The concentration at 8 h was 20.4 ng/mL.

What about the concentration at 12 h [1] of the same molecule?
Its concentration at 12 h is 11.3 ng/mL.

And the concentration at 24 h [2]?
Its concentration at 24 h is 7.59 ng/mL.

And the concentration at 24 h [1]?
Its concentration at 24 h is 7.59 ng/mL.

What about the concentration at 48 h [2] of the same molecule?
Its concentration at 48 h is 3.13 ng/mL.

What about the concentration at 48 h [1] of the same molecule?
Its concentration at 48 h is 3.13 ng/mL.

And the concentration at 72 h [2]?
Its concentration at 72 h is 2.13 ng/mL.

What about the concentration at 72 h [1] of the same molecule?
Its concentration at 72 h is 2.13 ng/mL.

And the concentration at 96 h [2]?
The concentration at 96 h was 1.12 ng/mL.

And the concentration at 96 h [1]?
Its concentration at 96 h is 1.12 ng/mL.

And the AUC(0-t) (400 mg, single oral dose of 400 mg with a low-fat meal, geometric mean of subjects, read-out: AUC0-12, Geo Mean)?
The AUC(0-t) was 256 ng·h/mL.

And the AUC0-inf (400 mg, single oral dose of 400 mg with a low-fat meal, geometric mean of subjects)?
Its AUC0-inf is 300 ng·h/mL.

And the AUC(0-t) (400 mg, single oral dose of 400 mg with a low-fat meal, geometric mean of subjects, read-out: AUC0-last, Geo Mean)?
Its AUC(0-t) is 277 ng·h/mL.

What about the Cmax (400 mg, single oral dose of 400 mg with a low-fat meal, geometric mean of subjects, read-out: Cmax, Geo Mean) of the same molecule?
Its Cmax is 66.6 ng/mL.

What about the half-life (400 mg, single oral dose of 400 mg with a low-fat meal, geometric mean of subjects, read-out: T1/2, Geo Mean (converted)) of the same molecule?
Its half-life is 1630 min.

What about the half-life (400 mg, single oral dose of 400 mg with a low-fat meal, individual subjects, read-out: T1/2 (converted)) of the same molecule?
The half-life was 1630 min.

What about the Tmax (400 mg, single oral dose of 400 mg with a low-fat meal, median of subjects (footnote b), read-out: Tmax, Median) of the same molecule?
Its Tmax is 4 h.

What about the concentration at 0.5 h [3] of the same molecule?
Its concentration at 0.5 h is 42.7 ng/mL.

What about the concentration at 1 h [3] of the same molecule?
Its concentration at 1 h is 52.2 ng/mL.

What about the concentration at 1.5 h [3] of the same molecule?
The concentration at 1.5 h was 48.9 ng/mL.

What about the concentration at 2 h [3] of the same molecule?
The concentration at 2 h was 83.3 ng/mL.

And the concentration at 4 h [3]?
Its concentration at 4 h is 64.4 ng/mL.

And the concentration at 6 h [3]?
Its concentration at 6 h is 34.5 ng/mL.

What about the concentration at 8 h [3] of the same molecule?
Its concentration at 8 h is 23 ng/mL.

What about the concentration at 12 h [3] of the same molecule?
Its concentration at 12 h is 11.9 ng/mL.

What about the concentration at 24 h [4] of the same molecule?
Its concentration at 24 h is 3.75 ng/mL.

And the concentration at 24 h [3]?
Its concentration at 24 h is 3.75 ng/mL.

What about the concentration at 48 h [4] of the same molecule?
Its concentration at 48 h is 1.46 ng/mL.

What about the concentration at 48 h [3] of the same molecule?
Its concentration at 48 h is 1.46 ng/mL.

And the concentration at 72 h [4]?
The concentration at 72 h was 0.872 ng/mL.

And the concentration at 72 h [3]?
The concentration at 72 h was 0.872 ng/mL.

What about the concentration at 96 h [4] of the same molecule?
Its concentration at 96 h is 0.538 ng/mL.

What about the concentration at 96 h [3] of the same molecule?
Its concentration at 96 h is 0.538 ng/mL.

And the AUC(0-t) (400 mg, single oral dose of 400 mg, fasted, geometric mean of subjects, read-out: AUC0-12, Geo Mean)?
The AUC(0-t) was 263 ng·h/mL.

And the AUC0-inf (400 mg, single oral dose of 400 mg, fasted, geometric mean of subjects)?
Its AUC0-inf is 304 ng·h/mL.

And the AUC(0-t) (400 mg, single oral dose of 400 mg, fasted, geometric mean of subjects, read-out: AUC0-last, Geo Mean)?
The AUC(0-t) was 278 ng·h/mL.

And the Cmax (400 mg, single oral dose of 400 mg, fasted, geometric mean of subjects, read-out: Cmax, Geo Mean)?
Its Cmax is 86.2 ng/mL.

What about the half-life (400 mg, single oral dose of 400 mg, fasted, geometric mean of subjects, read-out: T1/2, Geo Mean (converted)) of the same molecule?
Its half-life is 2000 min.

And the half-life (400 mg, single oral dose of 400 mg, fasted, individual subjects, read-out: T1/2 (converted))?
The half-life was 2000 min.

And the Tmax (400 mg, single oral dose of 400 mg, fasted, median of subjects (footnote b), read-out: Tmax, Median)?
The Tmax was 2 h.

And the concentration at 0 h (800 mg, multiple oral doses of 800 mg BID, fasted, 0 h, Mean of subjects, read-out: Plasma concentration)?
The concentration at 0 h was 20.6 ng/mL.

And the concentration at 0.5 h [5]?
The concentration at 0.5 h was 97.2 ng/mL.

What about the concentration at 1 h [5] of the same molecule?
The concentration at 1 h was 137 ng/mL.

And the concentration at 1.5 h [5]?
Its concentration at 1.5 h is 107 ng/mL.

What about the concentration at 2 h [5] of the same molecule?
The concentration at 2 h was 122 ng/mL.

What about the concentration at 4 h [5] of the same molecule?
The concentration at 4 h was 138 ng/mL.

What about the concentration at 6 h [5] of the same molecule?
Its concentration at 6 h is 107 ng/mL.

And the concentration at 8 h [5]?
The concentration at 8 h was 56.2 ng/mL.

And the concentration at 12 h [5]?
The concentration at 12 h was 14.7 ng/mL.

What about the AUC(0-t) (800 mg, multiple oral doses of 800 mg BID, fasted, Geo Mean of subjects, read-out: AUC0-12) of the same molecule?
The AUC(0-t) was 347 ng·h/mL.

What about the AUC(0-t) (800 mg, multiple oral doses of 800 mg BID, fasted, Geo Mean of subjects, read-out: AUC0-last) of the same molecule?
Its AUC(0-t) is 477 ng·h/mL.

What about the Cmax (800 mg, multiple oral doses of 800 mg BID, fasted, Geo Mean of subjects, read-out: Cmax) of the same molecule?
Its Cmax is 99.5 ng/mL.

What about the Tmax (800 mg, multiple oral doses of 800 mg BID, fasted, Median of subjects, read-out: Tmax) of the same molecule?
The Tmax was 2 h.

From patent US20250120981A1, “MRTX1133 PHARMACEUTICAL COMPOSITIONS” (MIRATI THERAPEUTICS, INC., priority 2023, published 2025)
